{"source": "patent US20250057808A1", "about": "“COMPOSITION COMPRISING BETA LACTAM FOR TREATING ALCOHOL DEPENDENCE AND ALCOHOL ASSOCIATED DISEASES OR CONDITIONS” (Temple University of the Commonwealth System of Higher …, priority 2023, published 2025)", "key": {"xCT": {"test_system": "xCT", "experiment": "Immunoblot xCT in mPFC-IL, mPFC-PL, NAc-core, NAc-shell (section B)", "type": "in vivo, Male and female alcohol-preferring (P) rats", "conditions": "100 mg/kg i.p. 5 days", "experimental": "After 24 hours of receiving the last injection, rats were euthanized by CO2 inhalation followed by decapitation with a guillotine. Brains were harvested and immediately frozen on dry ice and stored at −80° C. Cryostat (Leica) was used to isolate the mPFC subregions (mPFC-IL and mPFC-PL), and subregions of the NAc (NAc-core and NAc-shell). Brains were micro-punctured using the stereotaxic coordinates following the Rat Brain Atlas. The isolated brain regions were stored at −80° C. for subsequent protein detection using Western Blot assay.\nImmunoblot assays were performed to determine the expression of GLT-1, xCT and β-tubulin in mPFC-IL, mPFC-PL, NAc-core, and NAc-shell of all groups as described previously. Briefly, brain samples were homogenized in lysis buffer supplemented with protease inhibitor and total protein was quantified using protein assay (Bio-Rad, Hercules, CA, USA). Equal amount of the samples was loaded on polyacrylamide gel (10-20%).\nSubsequently, proteins were transferred on a PVDF membrane and blocked with 5% milk in Tris-buffered saline Tween-20 (1×TBST) for 30 minutes at room temperature. Membranes were then incubated overnight at 4° C. with one of the following antibodies: rabbit anti-GLT-1 (1:1000, Abcam, AB41621), and/or rabbit anti-xCT (1:1000, Abcam, AB175186). Mouse anti-β-tubulin (1:1000; Cell Signaling D71G5) was used as a loading control antibody. On the following day, membranes were washed five times with 1×TBST followed by incubation with appropriate secondary antibody (1:4000) for 60 minutes at room temperature. Chemiluminescent reagents (Super Signal West Pico, Pierce Inc.) were used to detect proteins using a ChemiDoc imaging system (BioRad, USA).\nGLT-1 and xCT expression were normalized against β-tubulin, a control loading protein. Imaging System and ImageJ software version 1.53a were used to quantify and analyze the expression of GLT-1 and xCT in the subregions of the mPFC and NAc. Data from water-control group were represented as 100% and all other values were expressed relative to this control to evaluate the changes in protein expression.\nThe ratios for treated animals in the ethanol/saline and ethanol/MC-100093 groups were normalized to the mean ratios for the control group (water/saline group). The control ratio was set at 100, and the results from each of the treated groups were expressed as a percentage relative to the water/saline group value of 100%. We normalized the ethanol/saline and ethanol/MC-100093 groups data to water/saline group to reduce any differences of contrast with Western blots for each set of groups (control/water/saline, ethanol/saline, and ethanol/MC-100093 groups).\nAll statistical analyses were conducted using GraphPad Prism (10). Two-way (mixed) ANOVA followed by Bonferroni multiple comparison post-hoc test was performed to analyze daily ethanol intake, average daily water intake and body weight. One-way ANOVA followed by Newman-Keuls post hoc tests were used to analyze Western blot data. All statistical analyses data were reported as a p<0.05 of significance."}, "BDNF": {"test_system": "BDNF", "experiment": "Western blot BDNF in subregions of mPFC and NAc", "type": "in vivo, Male P rats", "experimental": "(§1) All P rats were euthanized by CO2 inhalation and decapitated with a guillotine 24 hours after the final i.p. injection was administered on Day 6 of Week 6. Brains were removed and immediately frozen on dry ice and stored at −80° C. The mPFC subregions (infralimbic cortex and prelimbic cortex) and NAc subregions (core and shell) were dissected using a cryostat machine kept at −20° C. Surgical blades were used to dissect all brain regions following visualized landmarks using the stereotaxic coordinates provided by Paxinos and colleague's rat brain stereotactic atlas. All brain regions were stored in −80° C. Western Blot analyses.\n(§2) Western blot was performed to determine the expression of BDNF, TNF-α, RAGE, HMGβ-1, and β-tubulin in the subregions of mPFC and NAc as preformed in previous studies.\n(§3) Brain samples were lysed with a lysing buffer containing protease inhibitors. The amount of protein in each sample was quantified using a detergent compatible protein assay (Bio-Rad, Hercules, CA, USA). Polyacrylamide gels (10%) were loaded with the lysate mixture, and proteins were separated using gel electrophoresis for 1 hour. Proteins were then transferred from the gels onto Polyvinylidene difluoride (PVDF) membranes (BioRad). After transfer, membranes were incubated for 30 minutes in a mixture of nonfat milk in 1×Tris-buffered saline with Tween-20 (TBST) at room temperature. Membranes were then incubated at 4° C. for 24 hours with primary antibodies: anti-rabbit BDNF (1:1000, Abeam, #ab108319), anti-rabbit TNF-α (1:500, Abeam, #ab9739), anti-rabbit HMGβ-1 (1:500, Abeam, #ab18256), and anti-rabbit RAGE (1:1000, Abeam, #ab37407). Anti-mouse-β-tubulin (1:1000, Cell Signaling Technology, #D71G9) was used as a loading control antibody. After incubating for 24 hours, secondary antibody such as donkey anti-rabbit (1:4000, Invitrogen, #31458) or anti-mouse (1:4000, Cell Signaling, #7076S) was added to the membrane for 1 hour at room temperature. The membranes were then washed with 1×TBST three times for 5 minutes each and then dried. Membranes were then incubated in chemiluminescent reagents (Super Signal West Pico, Pierce Inc.) for 2 minutes. Blot images were developed using ChemiDoc. Imaging System and ImageJ software version 1.53a were used to quantify and analyze the expression of BDNF, TNF-α, RAGE, HMGβ-1, and β-tubulin.\n(§4) The data for the water/saline control group were expressed as 100% based on the values corresponding to the ethanol/saline and ethanol/MC-100093 groups for each set of blotting. Thus, the expression of selected proteins for each group (ethanol/saline group or ethanol/MC-100093 group) was calculated relative to the water/saline control group being set to 100%.\n(§5) Statistical analyses were performed using GraphPad Prism Version 10. Two-way repeated measures ANOVA followed by Bonferroni post-hoc tests were used to compare water and ethanol intake, and body weight, amongst water group, ethanol/saline group and ethanol/MC-100093 group. A one-way ANOVA test was performed to compare the expression of the studied proteins in selected brain regions in water/saline, ethanol/saline and ethanol/MC-100093 groups. Statistical significance was determined by a p-value of or less than 0.05."}, "RAGE": {"test_system": "RAGE", "experiment": "Western blot RAGE in subregions of mPFC and NAc", "type": "in vivo, Male P rats", "experimental": "as §1, §2, §3, §4, §5"}, "GLT-1": {"test_system": "GLT-1", "conditions": "cited from earlier work"}, "[1]": {"conditions": "female P rats, vs ethanol-saline and water-saline"}, "[2]": {"conditions": "100 mg/kg i.p., compared to ethanol/saline group"}, "[3]": {"conditions": "ethanol/MC-100093 group (100 mg/kg i.p.) compared to water/saline and ethanol/saline groups"}}, "note": "“Also recorded” adds a separate entry of the source."}
{"smiles": "C[C@@H](O)[C@H]1C(=O)N[C@@H]1[C@@H](C)C(=O)N1CCN(C)CC1", "note": "[MC-100093]", "values": [{"measurement": "xCT expression in the NAc-core", "setting": "xCT; [1]", "result": "significant upregulation of xCT expression"}, {"measurement": "xCT expression in the NAc-shell", "setting": "xCT; [1]", "result": "significant upregulation in the expression of xCT"}, {"measurement": "xCT expression in the mPFC-IL", "setting": "xCT; [1]", "result": "significant upregulation in the expression of xCT"}, {"measurement": "xCT expression in the mPFC-PL", "setting": "xCT; [1]", "result": "significant upregulation of the expression of xCT"}, {"measurement": "xCT expression in mPFC and NAc subregions (summary)", "setting": "xCT; female and male P rats, vs ethanol-saline groups, 100 mg/kg", "result": "upregulated GLT-1 and xCT expression in mPFC and NAc subregions; also recorded: upregulated xCT expression in both the NAc and the mPFC subregions in male and female P rats; also recorded: increasing GLT-1 and xCT expression in the mPFC and NAc subregions"}, {"measurement": "xCT expression in the NAc-core", "setting": "xCT; male P rats", "result": "significantly increased the expression of xCT"}, {"measurement": "xCT expression in the NAc-shell", "setting": "xCT; male P rats", "result": "increased the expression of xCT"}, {"measurement": "xCT expression in the mPFC-IL", "setting": "xCT; male P rats", "result": "significantly increased the expression of xCT"}, {"measurement": "xCT expression in the mPFC-PL", "setting": "xCT; male P rats", "result": "significantly increased the expression of xCT"}, {"measurement": "BDNF expression in the NAc shell", "setting": "BDNF; [2]", "result": "significant increase in BDNF expression"}, {"measurement": "Increase in BDNF expression in the NAc core", "setting": "BDNF; 100 mg/kg i.p., compared to water/saline and ethanol/saline groups", "result": 11, "unit": "%"}, {"measurement": "Increase in BDNF expression in the IL (mPFC)", "setting": "BDNF; [3]", "result": 40, "unit": "%"}, {"measurement": "Increase in BDNF expression in the PL (mPFC)", "setting": "BDNF; [3]", "result": 27, "unit": "%"}, {"measurement": "BDNF expression in the subregions of NAc and mPFC (summary)", "setting": "BDNF; male P rats, 100 mg/kg i.p., 100 mg/kg", "result": "attenuated ethanol-induced downregulation of brain derived neurotrophic factor (BDNF) expression"}, {"measurement": "Decrease in RAGE expression in the IL", "setting": "RAGE; [2]", "result": 14, "unit": "%"}, {"measurement": "Decrease in RAGE expression in the NAc core", "setting": "RAGE; [2]", "result": 12, "unit": "%"}, {"measurement": "RAGE expression in the NAc shell", "setting": "RAGE; [2]", "result": "decreased RAGE expression"}, {"measurement": "RAGE expression in the PL", "setting": "RAGE; [2]", "result": "decreased RAGE expression"}, {"measurement": "RAGE expression in subregions of mPFC and NAc (summary)", "setting": "RAGE; post-treatment with MC-100093 100 mg/kg i.p., 100 mg/kg", "result": "normalized RAGE expression; also recorded: attenuated ethanol-induced increase in receptor for advanced glycation end products (RAGE)"}, {"measurement": "GLT-1 upregulatory properties", "setting": "GLT-1", "result": "potent GLT-1 upregulator; also recorded: enhanced GLT-1 upregulatory properties compared to ceftriaxone"}]}
